One data set has as its system HCT116 PARP-1−/− cells. Put plainly: cell viability, resazurin reduction assay, HCT116 PARP-1-/-. To be noted: for higher sensitivity of HCT116 PARP-1−/− than PARP-1+/+: from IC50 values of Table 1; for IC50: read-out: IC50-values HCT116 PARP1−/−.
For another data set, the system named is DLD-1 WT cells. The experiment in a line: cell viability, resazurin reduction assay, DLD-1 WT. As to conditions: for IC50: read-out: IC50-values DLD-1 WT. A general note: Resazurin is reduced to fluorescent resorufin, in cell work by metabolically active cells.
Data set [1] has as its system human colonic epithelial cells (HCEC). Put plainly: cell viability, resazurin reduction assay, HCEC. As to conditions: 72 h; for IC50: read-out: IC50-values HCEC.
Method: (§1) To assess the cytotoxicity of newly developed PARP inhibitors, cells were cultivated in translucent 96-well plates overnight and treated with PARP inhibitors or cytostatic drugs for 72 h. For the assessment of synergistic activity, cells were pretreated with the inhibitors for 2 h, before the inhibitor or cytostatic drug was added. Cell viability was assessed by the resazurin reduction assay (RRA) as described previously [41], and fluorescence was measured using a Spark® Multi-well reader (Tecan, Crailsheim, Germany). IC50 values were calculated using GraphPad Prism 9.0 software (GraphPad Software Inc., Boston, MA, USA). To this end, concentrations were transformed into the log scale, plotted against the cell viability and the curve was fitted by nonlinear regression with variable slope, providing the IC50 values.
The subject of another data set is DLD-1 ATRs/s cells. Put plainly: cell viability, resazurin reduction assay, DLD-1 ATRs/s. As to conditions: for IC50: read-out: IC50-values DLD-1 ATRs/s.
The test system of a further data set is HCT116 PARP-1+/+ cells. The experiment in a line: cell viability, resazurin reduction assay, HCT116 PARP-1+/+. To be noted: for IC50: read-out: IC50-values HCT116 PARP1+/+.
In the next data set the test system is HCT116 WT cells. The experiment in a line: cell viability, resazurin reduction assay, HCT116 WT. To be noted: for IC50: read-out: IC50-values HCT116 WT.
A further data set deals with HCT116 BRCA2−/− cells. Put plainly: cell viability, resazurin reduction assay, HCT116 BRCA2-/-. To be noted: for IC50: read-out: IC50-values HCT116 BRCA2−/−.
Another data set relates to Caco-2 cells. The experiment in a line: cell viability, resazurin reduction assay, Caco-2. To be noted: for IC50: Homo sapiens, read-out: IC50-values Caco-2.
The target of data set [2] is T1, PARP-1 (Homo sapiens, UniProt P09874). Put plainly: chemiluminescence-based PARP-1 assay kit (recombinant enzyme). To be noted: IC50 PARP-1 screening assay kit, recombinant PARP-1, 1 h RT, n = 2.
From the text: Twelve compounds were screened regarding their ability to inhibit PARP-1 enzyme activity in vitro. Therefore, we utilized a chemiluminescence-based PARP-1 assay kit (BPS Bioscience, San Diego, CA, USA) and performed two independent experiments according to the manufacturer’s instructions. Briefly, non-transparent 96-well plates were coated with histones overnight. […] After adding activated DNA and biotinylated NAD^+, the ADP-ribosylation reaction was initiated by the addition of PARP-1 enzyme and incubated at RT for 1 h. Quantification of biotinylated PAR was conducted by using Streptavidin–HRP and subsequent ECL-based detection of chemiluminescence, applying a Spark® multiplate reader (Tecan, Crailsheim, Germany).
The subject of data set [3] is H2O2-induced PAR formation (PARP-1 activity) in HCT116 cells. Put plainly: PAR immunofluorescence: H2O2-induced PAR formation in HCT116 cells. The format is cell-based, human. As to conditions: for PAR formation: 10 µM / highest concentration; for PAR formation / PAR signal: H2O2-induced; for IC50: Homo sapiens, HCT-116, 2 h pretreatment, 1 mM H2O2 5 min, unit inferred, read-out: IC50 PAR formation in HCT116 cells (Figure A3A); for PAR signal: concentration of 100 nM. As for the experimental part:
Cells lines were re-authenticated by p53, PARP-1, ATR, and BRCA2 immunoblotting, by their characteristic differential response to genotoxic agents and their typical cell morphology. HCT116, HCT116 BRCA2^−/−, DLD-1 ATR^+/+ and DLD-1 ATR^s/s cells were maintained in DMEM, whereas HCT116 PARP-1^+/+ and HCT116 PARP-1^−/− cells were maintained in RPMI1640 containing 10% FCS and 1% penicillin/streptomycin in a humidified atmosphere at 37 °C and 5% CO2. Caco-2 cells were cultured in MEM with 10% FCS, 1% penicillin/streptomycin, and nonessential amino acids. […] The media and supplements were obtained from PAN-Biotech (Aidenbach, Germany) and Thermo Fisher Scientific (Darmstadt, Germany). Cell culture was frequently tested for contamination with mycoplasma by PCR using the Venor® GeM Classic kit (Minerva Biolabs, Berlin, Germany) and immunofluorescence microscopy with nuclear staining. […] Cells were exposed for 1 h for the quantification of PARP-1 trapping or 2 h for assessing the inhibitory potential by confocal fluorescence microscopy. […] If the PARPi treatment was conducted in combination with cytostatic drugs for 24 h (γH2AX Western blot analysis) or 72 h (cytotoxicity testing), the PARPi was added 2 h prior.
The activity of potential PARP inhibitors was tested in a cell model using immunofluorescence-based detection of PAR essentially as reported previously. HCT116 cells were seeded in Ibidi 12-well chamber slides and cultivated until they reached 70% confluence. Induction of PARylation was achieved by adding 1 mM H2O2 in PBS/1 mM MgCl2 for 5 min at 37 °C. Cells were washed with PBS/1 mM MgCl2 and fixed by adding 4% PFA at RT. After 20 min, cells were washed with PBS/100 mM glycine for 1 min and permeabilized with PBS/0.3% Triton X-100 for 3 min. Blocking of the cells was conducted by adding PBS/0.05% Tween containing 5% powdered milk for 1 h at RT. […] Cells were washed and an Alexa488-coupled secondary antibody was added for 1 h at RT. The slides were mounted with VectaShield containing DAPI and analyzed by confocal microscopy using a Zeiss Axio Observer 7 microscope (Oberkochen, Germany) equipped with a 63× oil objective (Plan-Apochromat 63×/1.40 DIC M27) and a LSM900 confocal laser scanner (Zeiss, Oberkochen, Germany). Images were analyzed using Zeiss Zen software version 3.4 and ImageJ v1.53t (NIH, Bethesda, MD, USA). Briefly, nuclei were identified based on the DAPI signal and marked as regions of interest (ROI). Subsequently, the mean PAR signal in the identified ROI was quantified in each image and exported for further analysis. For the individual experiments, the mean PAR intensity was averaged for each treatment group and the control was set to 100%. Only images with a minimum of 4 cells were included in the analysis and at least 5 images were assessed per treatment group. The experiments were conducted in at least 3 biological replicates. To derive IC50 concentrations, relative PAR levels of the experiments were transferred to GraphPad Prism 9.0 Software (GraphPad Software Inc., Boston, MA, USA) for a nonlinear regression analysis applying a three-parameter model.

Data set [4] concerns the target T1, PARP-1. The experiment in a line: chromatin retention assay (PARP-1 trapping) in HCT116 cells. As to conditions: HCT116, MMS 1 mM 1 h with inhibitor.
Method: (§2) Quantification of chromatin-trapped PARP-1 was performed as described elsewhere [42]. Briefly, HCT116 cells were harvested, and pellets were lysed in buffer containing 150 mM KCl, 2.5 mM MgCl2, 50 mM HEPES pH 7.8, 5 mM EDTA pH 8, 3 mM dithiothreitol (DTT), 10% glycerol, 0.5% Triton X-100, and freshly added protease inhibitor cocktail (Roche) for 15 min on ice. The chromatin-bound protein fraction was isolated by centrifugation at 4 °C for 15 min and 16.000× g. After transferring the soluble fraction, the chromatin-containing pellet was washed twice in lysis buffer and sonicated for 3 min. […] The proteins of interest were detected using a c300 chemiluminescence imager (Azure Biosystems, Dublin, CA, USA). […] The signal intensity (e.g., PARP-1 or γH2AX) of each lane was quantified and subsequently normalized to the respective loading control as indicated in the figure legends, which was analyzed in each experiment. […]
In data set [5] the target is T1, PARP-1. Put plainly: chromatin retention assay (PARP-1 trapping) in Caco-2 cells. To be noted: Caco-2, MMS 1 mM 1 h with inhibitor.
Method: as §2
In data set [6] the test system is γH2AX formation in HCT116 BRCA2−/− cells. Put plainly: γH2AX Western blot in HCT116 BRCA2-/- cells. To be noted: IT 0.25 µM, 24 h, compared to WT. On the technique in general: In western blotting, separated proteins are transferred to a membrane and probed.
Method: as §2
The test system of data set [7] is γH2AX formation in HCT116 WT cells. The experiment in a line: γH2AX Western blot in HCT116 WT cells. As to conditions: X17613 50 µM or IT 0.25 µM, 24 h.
Method: Quantification of chromatin-trapped PARP-1 was performed as described elsewhere [42]. Briefly, HCT116 cells were harvested, and pellets were lysed in buffer containing 150 mM KCl, 2.5 mM MgCl2, 50 mM HEPES pH 7.8, 5 mM EDTA pH 8, 3 mM dithiothreitol (DTT), 10% glycerol, 0.5% Triton X-100, and freshly added protease inhibitor cocktail (Roche) for 15 min on ice. The chromatin-bound protein fraction was isolated by centrifugation at 4 °C for 15 min and 16.000× g. After transferring the soluble fraction, the chromatin-containing pellet was washed twice in lysis buffer and sonicated for 3 min. The soluble and chromatin fractions were mixed with self-made 5× Laemmli buffer (200 mM TRIS pH 6.8, 40% glycerol, 8% SDS, 4 % ß-mercaptoethanol, 0.08% Bromphenol Blue) and incubated at 95 °C for 10 min. Samples were then separated by SDS-PAGE followed by Western blot analysis essentially as described previously [43]. For the analysis of γH2AX, cells were directly harvested in 1× Laemmli buffer, incubated at 95 °C for 5 min, and subjected to SDS-PAGE and subsequent Western blot analysis [44]. […] The proteins of interest were detected using a c300 chemiluminescence imager (Azure Biosystems, Dublin, CA, USA). Densitometric image analysis was conducted by applying the software AzureSpot version 2.0.062 (Azure Biosystems, USA). The signal intensity (e.g., PARP-1 or γH2AX) of each lane was quantified and subsequently normalized to the respective loading control as indicated in the figure legends, which was analyzed in each experiment. […]

Several values for one entry are separate records, joined by “and”; a condition that tells them apart may be missing. Identical values can stand only once. Like-named read-outs stand apart in the source and are kept apart here. Where only a bound is given, the exact number is not on record here.

T1 sequence (P09874 whole entry): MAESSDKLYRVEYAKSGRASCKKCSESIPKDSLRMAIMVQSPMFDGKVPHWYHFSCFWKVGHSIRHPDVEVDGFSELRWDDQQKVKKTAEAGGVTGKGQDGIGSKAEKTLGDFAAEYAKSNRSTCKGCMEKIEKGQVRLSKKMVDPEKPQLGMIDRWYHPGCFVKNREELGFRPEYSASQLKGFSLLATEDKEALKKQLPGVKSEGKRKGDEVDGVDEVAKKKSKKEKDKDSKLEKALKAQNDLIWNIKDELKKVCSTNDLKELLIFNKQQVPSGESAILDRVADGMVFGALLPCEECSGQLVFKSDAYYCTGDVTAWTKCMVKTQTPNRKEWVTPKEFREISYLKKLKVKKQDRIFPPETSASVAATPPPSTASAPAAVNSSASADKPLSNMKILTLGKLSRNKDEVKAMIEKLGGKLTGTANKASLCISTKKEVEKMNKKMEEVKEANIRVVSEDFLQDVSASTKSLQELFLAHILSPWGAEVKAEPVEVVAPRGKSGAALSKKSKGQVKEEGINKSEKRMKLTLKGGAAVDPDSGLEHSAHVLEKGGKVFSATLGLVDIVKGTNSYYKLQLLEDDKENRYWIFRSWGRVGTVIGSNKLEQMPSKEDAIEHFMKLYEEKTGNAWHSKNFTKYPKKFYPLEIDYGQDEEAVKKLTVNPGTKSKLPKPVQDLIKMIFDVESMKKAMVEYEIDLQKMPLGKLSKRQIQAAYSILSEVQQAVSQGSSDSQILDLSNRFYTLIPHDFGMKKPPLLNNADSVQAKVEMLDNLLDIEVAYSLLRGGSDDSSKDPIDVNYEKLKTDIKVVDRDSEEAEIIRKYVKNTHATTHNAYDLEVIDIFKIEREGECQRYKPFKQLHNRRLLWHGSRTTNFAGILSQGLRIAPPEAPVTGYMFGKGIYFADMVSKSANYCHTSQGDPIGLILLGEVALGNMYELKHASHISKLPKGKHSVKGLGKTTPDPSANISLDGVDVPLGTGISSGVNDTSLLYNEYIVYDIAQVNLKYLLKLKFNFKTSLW
Method for DLD-1 ATRs/s cells: (§3) To assess the cytotoxicity of newly developed PARP inhibitors, cells were cultivated in translucent 96-well plates overnight and treated with PARP inhibitors or cytostatic drugs for 72 h. […] Cell viability was assessed by the resazurin reduction assay (RRA) as described previously [41], and fluorescence was measured using a Spark® Multi-well reader (Tecan, Crailsheim, Germany). IC50 values were calculated using GraphPad Prism 9.0 software (GraphPad Software Inc., Boston, MA, USA). To this end, concentrations were transformed into the log scale, plotted against the cell viability and the curve was fitted by nonlinear regression with variable slope, providing the IC50 values.
Method for DLD-1 WT cells: as §3
Method for HCT116 PARP-1+/+ cells: as §1
Method for HCT116 PARP-1−/− cells: as §1

On to `O=C1[O][Pt]2([NH][C@@H]3CCCC[C@H]3[NH]2)[O]C1=O` [OXA, oxaliplatin], for which the “higher sensitivity of HCT116 PARP-1−/− than PARP-1+/+” value (“higher sensitivity” below) with HCT116 PARP-1−/− cells is 2.5–3 fold. Also, the IC50 in the data set with HCT116 PARP-1−/− cells (72 h, RRA) was found to be 0.28 µM; in the data set on DLD-1 WT cells (72 h, RRA), 8.77 µM; in data set [1] (RRA) it was 40.7 µM; in the data set with DLD-1 ATRs/s cells (72 h, RRA), 9.08 µM; in the data set with HCT116 PARP-1+/+ cells (72 h, RRA), 0.71 µM; in the data set with HCT116 WT cells (72 h, RRA) it was 1.19 µM. The IC50 with HCT116 BRCA2−/− cells (72 h, RRA) was found to be 0.25 µM.

For `O=c1[nH]cc(F)c(=O)[nH]1` [5-FU, 5-fluorouracil], the IC50 with HCT116 PARP-1−/− cells (Homo sapiens, HCT-116, 72 h) was determined as 0.15 µM; in the data set with DLD-1 WT cells (Homo sapiens, DLD-1, 72 h), 0.35 µM; in [1] (Homo sapiens, HCEC), 26.2 µM; in the data set with DLD-1 ATRs/s cells (Homo sapiens, DLD-1, 72 h), 0.22 µM; in the data set with HCT116 PARP-1+/+ cells (Homo sapiens, HCT-116, 72 h), 0.24 µM; in the data set on HCT116 WT cells (Homo sapiens, HCT-116, 72 h) it was 0.5 µM. Further, the IC50 in the data set with HCT116 BRCA2−/− cells (Homo sapiens, HCT-116, 72 h) worked out at 0.34 µM. Besides, the “higher sensitivity” value in the data set with HCT116 PARP-1−/− cells is reported as “less affected”. Besides, the “IC50-values Caco-2” value in the data set with Caco-2 cells (72 h, RRA) is “-”.

Regarding `COC(=O)C1CC(=O)c2cccc3[nH]c(C)c1c23` (centres unmarked) [X17616], on PARP-1 [2], the IC50 is 9.2 µM and 9.17 µM.

`Cc1[nH]c2cccc3c2c1C(C(=O)NCc1ccco1)CC3=O` (centres unmarked) [X17620, N-(furan-2-ylmethyl)-2-methyl-5-oxo-1,3,4,5-tetrahydrobenzo[cd]indole-3-carboxamide]: the PAR formation entry in data set [3] is given as “no effect on PAR formation”. At PARP-1 [2], the IC50 was determined as 0.482 µM.

As for `CNC(=O)C1CC(=O)c2cccc3[nH]c(C)c1c23` (centres unmarked) [X17618, N,2-dimethyl-5-oxo-1,3,4,5-tetrahydrobenzo[cd]indole-3-carboxamide], the “cell viability, monotreatment” value with HCT116 PARP-1−/− cells (HCT116 PARP-1−/−, 72 h, up to 50 µM) is on record as “Neither X17613 nor X17618 decreased cell viability”; in the data set with DLD-1 WT cells (DLD-1 WT, 72 h), “no effects”; in [1] (nonmalignant HCEC, up to 50 µM), “no effect on HCEC”; with DLD-1 ATRs/s cells (DLD-1 ATRs/s, 72 h), “no effects”; in the data set on HCT116 PARP-1+/+ cells (HCT116 PARP-1+/+, 72 h, up to 50 µM) it was “Neither X17613 nor X17618 decreased cell viability”; with Caco-2 cells (Caco-2, 72 h, up to 50 µM) it was “no impact on cell viability at all”. The “cell viability, monotreatment” value in the data set with HCT116 WT cells (HCT116 WT, 72 h, up to 50 µM) is “no impact”. The “cell viability in combination with cytostatics” value is “did not affect the cytotoxicity of the anticancer drugs” in the data set on HCT116 PARP-1−/− cells (HCT116 PARP-1−/−, IT 0.5 µM, 5-FU 0.25 µM, OXA 0.5 µM, 72 h, PARPi added 2 h prior) and “did not affect the cytotoxicity of the anticancer drugs” with HCT116 PARP-1+/+ cells (HCT116 PARP-1+/+, IT 0.5 µM, 5-FU 0.25 µM, OXA 0.5 µM, 72 h, PARPi added 2 h prior). The IC50 in the data set on HCT116 PARP-1−/− cells (Homo sapiens, HCT-116, 72 h) is over 50 µM; in data set [3], 0.00538 µM; in the data set on DLD-1 WT cells (Homo sapiens, DLD-1, 72 h), over 50 µM; in [1] (Homo sapiens, HCEC), over 50 µM; in the data set with DLD-1 ATRs/s cells (Homo sapiens, DLD-1, 72 h), over 50 µM; in the data set on HCT116 PARP-1+/+ cells (Homo sapiens, HCT-116, 72 h) it was over 50 µM. Moreover, the IC50 was 2.84 µM on PARP-1 [2]; over 50 µM in the data set on Caco-2 cells (Caco-2, 72 h); over 50 µM in the data set with HCT116 WT cells (Homo sapiens, HCT-116, 72 h); over 50 µM in the data set with HCT116 BRCA2−/− cells (Homo sapiens, HCT-116, 72 h). For the same compound, in [3], the PAR signal entry is “significant decrease in the PAR signal”. In addition, the “chromatin-bound PARP-1 (PARP-1 trapping)” value on PARP-1 [4] was “No enrichment of PARP-1 in the chromatin fraction”. Further, the PARP-1 trapping result at PARP-1 [5] is recorded as “no effects were detected”. Also, in the data set with Caco-2 cells (Caco-2, IT 10 µM, 5-FU 5 µM, OXA 1 µM), the “sensitization towards the anticancer drugs” value is given as “no sensitization towards the anticancer drugs”. The decrease of viability entry with HCT116 BRCA2−/− cells (HCT116 BRCA2−/−, highest test concentration of 50 µM, 72 h) was “about 25%”.

As for `Cc1[nH]c2cccc3c2c1C(C(=O)N1CCOCC1)CC3=O` (centres unmarked) [X17621, 2-methyl-3-(morpholine-4-carbonyl)-3,4-dihydrobenzo[cd]indol-5(1H)-one], in data set [3], the PAR formation result was “did not entirely inhibit PAR formation”, the IC50 came to 0.0167 µM and the PAR signal result is recorded as “significant decrease in the PAR signal”. Also, the IC50 at PARP-1 [2] was determined as 1.63 µM.

With `CCc1c2c(nc3ccc(OC(=O)N4CCC(N5CCCCC5)CC4)cc13)-c1cc3c(c(=O)n1C2)COC(=O)[C@]3(O)CC` [IT, irinotecan], the IC50 in the data set with HCT116 PARP-1−/− cells (Homo sapiens, HCT-116, 72 h) is 0.35 µM; in the data set with DLD-1 WT cells (Homo sapiens, DLD-1, 72 h), 4.19 µM; in [1] (Homo sapiens, HCEC), 2.95 µM; in the data set on DLD-1 ATRs/s cells (Homo sapiens, DLD-1, 72 h), 2.99 µM; with HCT116 PARP-1+/+ cells (Homo sapiens, HCT-116, 72 h), 0.93 µM; in the data set on Caco-2 cells (Caco-2, 72 h) it was 66.5 µM. The IC50 in the data set with HCT116 WT cells (Homo sapiens, HCT-116, 72 h) is 1.28 µM; in the data set on HCT116 BRCA2−/− cells (Homo sapiens, HCT-116, 72 h) it was 0.16 µM. Moreover, in the data set on HCT116 PARP-1−/− cells, the “higher sensitivity” value is 2.5–3 fold. Moreover, the results for the “γH2AX, mono-treatment” value in [6] and in [7] were “slightly higher γH2AX levels” and “significant induction of γH2AX”, respectively.

Values taken from publication PMC11506018, “Targeting PARP-1 and DNA Damage Response Defects in Colorectal Cancer Chemotherapy with Established and Novel PARP Inhibitors” (Cancers, 2024).
